Assay [1] has as its target T1, GjALDH2C3 (Gardenia jasminoides, UniProt A0A288W8F8).
T1 sequence (A0A288W8F8 1-503): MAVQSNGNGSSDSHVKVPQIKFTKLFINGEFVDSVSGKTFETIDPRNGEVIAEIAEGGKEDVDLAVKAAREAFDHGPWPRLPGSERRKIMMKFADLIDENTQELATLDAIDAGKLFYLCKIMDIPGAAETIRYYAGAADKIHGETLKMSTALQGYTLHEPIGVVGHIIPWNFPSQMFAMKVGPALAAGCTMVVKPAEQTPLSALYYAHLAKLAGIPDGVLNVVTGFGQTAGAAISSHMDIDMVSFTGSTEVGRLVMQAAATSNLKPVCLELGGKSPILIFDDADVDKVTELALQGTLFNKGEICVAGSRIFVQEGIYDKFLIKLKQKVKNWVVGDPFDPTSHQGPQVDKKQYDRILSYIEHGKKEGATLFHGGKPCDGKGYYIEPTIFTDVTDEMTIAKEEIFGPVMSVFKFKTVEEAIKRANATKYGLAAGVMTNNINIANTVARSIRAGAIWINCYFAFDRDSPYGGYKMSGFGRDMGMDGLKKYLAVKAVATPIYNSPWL
As to the kind of experiment: in vitro oxidation, UPLC-DAD and LC-MS. Type of assay: biochemical. Conditions: products crocetin and crocetin semialdehyde.

Assay [2] deals with T2, GjUGT75L6 (Gardenia jasminoides, UniProt F8WKW0).
T2 construct: gene UGT75L6
To be noted: purification not stated in main text.

Assay [3] has as its target T3, GjUGT74F8 (Gardenia jasminoides, UniProt Z9ZI51R9R0).
T3 sequence (Z9ZI51R9R0 1-457): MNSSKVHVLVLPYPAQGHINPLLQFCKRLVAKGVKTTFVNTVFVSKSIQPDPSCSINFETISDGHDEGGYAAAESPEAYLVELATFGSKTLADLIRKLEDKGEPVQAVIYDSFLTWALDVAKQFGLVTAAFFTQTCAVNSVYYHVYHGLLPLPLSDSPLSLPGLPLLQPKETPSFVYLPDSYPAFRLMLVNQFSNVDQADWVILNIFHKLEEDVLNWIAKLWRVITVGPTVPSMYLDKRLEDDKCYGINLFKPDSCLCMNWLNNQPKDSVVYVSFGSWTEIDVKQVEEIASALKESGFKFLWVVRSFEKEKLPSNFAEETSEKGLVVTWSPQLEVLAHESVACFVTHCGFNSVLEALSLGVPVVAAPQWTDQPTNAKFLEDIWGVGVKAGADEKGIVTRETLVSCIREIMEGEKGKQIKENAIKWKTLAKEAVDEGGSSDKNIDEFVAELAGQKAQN
Description: in vitro glucosylation, UPLC-DAD and LC-MS. Type of assay: biochemical. To be noted: products crocin III and crocin V.

Assay [4] deals with T3, GjUGT74F8. As to the kind of experiment: in vitro de-glucosylation, UPLC-DAD and LC-MS. Type of assay: biochemical. To be noted: reversible; product crocin IV.
Assay [5] has as its target T4, GjUGT94E13 (Gardenia jasminoides, UniProt A0A288W8G7).
T4 sequence (A0A288W8G7 1-446): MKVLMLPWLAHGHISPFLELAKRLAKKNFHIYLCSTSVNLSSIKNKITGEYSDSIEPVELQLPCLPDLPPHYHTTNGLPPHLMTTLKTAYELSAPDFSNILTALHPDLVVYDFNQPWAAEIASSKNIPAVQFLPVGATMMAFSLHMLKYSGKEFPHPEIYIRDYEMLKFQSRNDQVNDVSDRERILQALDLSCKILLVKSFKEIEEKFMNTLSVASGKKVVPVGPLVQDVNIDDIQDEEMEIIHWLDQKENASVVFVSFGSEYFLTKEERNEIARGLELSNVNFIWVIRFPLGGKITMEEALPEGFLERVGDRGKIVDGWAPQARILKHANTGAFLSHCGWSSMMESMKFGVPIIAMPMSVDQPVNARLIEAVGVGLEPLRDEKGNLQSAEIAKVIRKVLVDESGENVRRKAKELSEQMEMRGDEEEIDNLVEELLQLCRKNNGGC
As to the kind of experiment: in vitro glucosylation, UPLC-DAD and LC-MS. To be noted: product crocin I. The assay is classed as biochemical.

The target of assay [6] is GjCCD4a (Gardenia jasminoides, UniProt A0A288W8F9). As to the kind of experiment: in bacterio carotenoid cleavage, UPLC-DAD and LC-MS. To be noted: E. coli accumulating zeaxanthin; product crocetin dialdehyde.
Sequence of GjCCD4a (A0A288W8F9 entry or part of it): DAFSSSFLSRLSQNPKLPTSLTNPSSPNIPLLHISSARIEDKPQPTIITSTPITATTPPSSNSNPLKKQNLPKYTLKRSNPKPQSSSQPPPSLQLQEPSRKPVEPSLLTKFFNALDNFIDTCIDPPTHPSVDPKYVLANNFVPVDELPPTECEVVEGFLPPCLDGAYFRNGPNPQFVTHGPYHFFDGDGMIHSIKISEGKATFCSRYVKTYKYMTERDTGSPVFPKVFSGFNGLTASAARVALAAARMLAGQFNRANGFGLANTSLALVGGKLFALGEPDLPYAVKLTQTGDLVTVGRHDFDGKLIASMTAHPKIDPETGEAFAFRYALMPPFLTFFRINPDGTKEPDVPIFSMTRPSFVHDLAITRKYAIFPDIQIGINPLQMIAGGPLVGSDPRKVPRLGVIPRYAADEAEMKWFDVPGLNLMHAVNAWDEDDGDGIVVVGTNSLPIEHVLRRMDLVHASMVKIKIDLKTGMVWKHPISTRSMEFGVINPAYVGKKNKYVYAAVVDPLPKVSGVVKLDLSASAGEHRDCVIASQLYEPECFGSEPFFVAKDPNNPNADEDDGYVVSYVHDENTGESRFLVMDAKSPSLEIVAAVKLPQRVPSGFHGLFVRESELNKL

T2 sequence (F8WKW0 whole entry): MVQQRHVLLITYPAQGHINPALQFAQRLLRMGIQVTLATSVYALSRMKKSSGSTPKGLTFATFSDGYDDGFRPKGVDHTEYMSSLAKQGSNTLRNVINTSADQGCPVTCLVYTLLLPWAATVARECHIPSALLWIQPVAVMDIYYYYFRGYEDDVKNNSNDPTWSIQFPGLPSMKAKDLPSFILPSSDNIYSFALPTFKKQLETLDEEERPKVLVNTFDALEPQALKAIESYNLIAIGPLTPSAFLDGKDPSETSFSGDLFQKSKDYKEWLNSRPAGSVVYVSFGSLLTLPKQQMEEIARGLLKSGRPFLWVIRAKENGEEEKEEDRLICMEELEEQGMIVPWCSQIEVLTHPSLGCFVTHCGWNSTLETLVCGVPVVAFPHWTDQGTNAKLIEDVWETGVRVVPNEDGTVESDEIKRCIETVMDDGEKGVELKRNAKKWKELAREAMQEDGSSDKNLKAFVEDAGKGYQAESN

For `C\C(C=O)=C/C=C/C(C)=C/C=C/C=C(C)/C=C/C=C(\C)C=O` [crocetin dialdehyde], the “in vitro oxidation, UPLC-DAD and LC-MS” value in assay [1] is on record as “Incubation of crocetin dialdehyde with GjALDH2C3 yielded two new peaks”.

As to `CC(/C=C/C=C(\C)C(=O)O)=C\C=C\C=C(C)\C=C\C=C(/C)C(=O)O` [crocetin], the “in vitro glucosylation, UPLC” value in assay [2] was “GjUGT75L6, and GjUGT94E13, were able to glycosylate crocetin and/or crocins”. Moreover, the “in vitro glucosylation, UPLC-DAD and LC-MS” value in assay [3] is given as “Upon in vitro incubation of GjUGT74F8 with crocetin, two new peaks”.

Take `CC(/C=C/C=C(\C)C(=O)O[C@@H]1O[C@H](CO)[C@@H](O)[C@H](O)[C@H]1O)=C\C=C\C=C(C)\C=C\C=C(/C)C(=O)O[C@@H]1O[C@H](CO[C@@H]2O[C@H](CO)[C@@H](O)[C@H](O)[C@H]2O)[C@@H](O)[C@H](O)[C@H]1O` [crocin II]: the “in vitro de-glucosylation, UPLC-DAD and LC-MS” value in assay [4] was “reversible conversion of crocin II to crocin IV and vice versa was observed”. Moreover, the “in vitro glucosylation, UPLC-DAD and LC-MS” value in assay [5] was “GjUGT94E13 could efficiently catalyze the glycosylation of crocins II and III to crocin I”.

As to `CC1=C(/C=C/C(C)=C/C=C/C(C)=C/C=C/C=C(C)/C=C/C=C(C)/C=C/C2=C(C)C[C@@H](O)CC2(C)C)C(C)(C)C[C@H](O)C1` [zeaxanthin], the “in bacterio carotenoid cleavage, UPLC-DAD and LC-MS” value in assay [6] was “a new product with a retention time and characteristic fragment ions”.

For the origin of these results see paper PMC7302004, “Tandem gene duplications drive divergent evolution of caffeine and crocin biosynthetic pathways in plants” (BMC Biology, 2020).
